Peptide text beside a SMILES is read from it. * marks the point of attachment. Palmitoyl = CCCCCCCCCCCCCCCC(=O)*
Columns and labels:
[1] = system: P19 embryonal carcinoma cells differentiated into neurons; assay: Neurite outgrowth of neurons cultured in peptide amphiphile gels; format: cell-based, murine; conditions: compared to gels of PA 1; for promotion of neurite outgrowth (in words): gels containing 0.2 wt % of the PA with 0.8 wt % PA 1
Procedure: P19 embryonal carcinoma cells were cultured in media composed of α-MEM (Gibco), 7.5% newborn calf serum (Lonza), 2.5% fetal bovine serum (Gibco), penicillin (100 units/ml) and streptomycin (100 ug/ml) (Invitrogen). Neuronal differentiation was induced by plating P19 cells in non-treated Petri dishes in media containing 5 uM retinoic acid (Sigma) for 4 days. Neurospheres were collected from the Petri dish and allowed to settle in a centrifuge tube for 10 minutes. Media was removed, then trypsin/EDTA solution was added and the tube was gently agitated for 5 minutes. Cells were dissociated by triturating the neurospheres, then media was added to inactivate the trypsin. Cells were centrifuged and the pellet resuspended in media to a concentration of 25,000 cells/ul. Cells were mixed (1:4) with PA solution. The PA/cell solution was pipetted into coverslip-bottom culture dishes (MatTek) and covered with gelling solution (150 mM NaCl, 3 mM KCl, 25 mM CaCl2) for 1 minute to induce gelation, then rinsed with a 150 mM NaCl, 3 mM KCl solution, then media was added to the dish. Cells were cultured for 2 days.
In order to assay neurite outgrowth, gels were rinsed with PBS, then fixed in 4% paraformaldehyde for 30 minutes at room temperature. Gels were rinsed 3× with PBS followed by addition of 10% normal goat serum blocking solution (Invitrogen) with 0.1% Triton X-100 added. Gels were incubated overnight with primary antibody (rabbit anti-β-III-tubulin IgG, 1/2000, Covance) in blocking solution. Gels were rinsed 3× with PBS, then blocked for 30 minutes with blocking solution. Next, gels were incubated with secondary antibody (Alexa Fluor 488 goat anti-rabbit IgG, 1/100, Invitrogen) in blocking solution for 1 hour. After one PBS rinse, nuclei were stained with a 5 ug/ml solution of Hoecsht 34580 (Invitrogen) in PBS for 15 minutes, then rinsed 4 times. Gels were imaged on a Zeiss LSM 510 META laser scanning confocal microscope, individually acquiring z-stacks of randomly chosen cells with neurites. Two gels were imaged per condition for each experiment. Experiments were done in triplicate. For each condition, at least 50 neurons with neurites were imaged. Using the Simple Neurite Tracer plug-in for ImageJ software, neurites were traced and measured. A one-way ANOVA, followed by paired t-tests, were performed to determine significance between conditions. Researchers were blinded to the conditions during imaging and tracing.
Pluripotent murine P19 embryonal carcinoma cells were differentiated into neurons. These neurons were then homogeneously distributed into isotonic salt solutions composed of 0.8 wt % PA 1 mixed with 0.2 wt % 2-5 and gelled with 25 mM CaCl2 (FIG. 3a,b). Mixtures of 1 with 2-5 were used in biological experiments in order to form robust gel matrices capable of supporting cells in culture. After two days of culture, the cells were fixed and the neurites and nuclei were fluorescently labelled green and blue using β-III-tubulin immunostaining and Hoechst staining, respectively, then imaged by confocal microscopy (FIG. 14). Neurites were traced and measured, and average neurite lengths were calculated (FIG. 15).

[2] = Small-angle X-ray scattering (SAXS) of PA nanostructures; format: physicochemical; conditions: for Total SAXS Cross-section dimensions: diameter
Text: Small-angle X-ray scattering (SAXS) measurements were obtained using a Rigaku S-MAX 3000 High Brilliance SAXS System. Cu Ka radiation was generated by Osmic MicroMaxs, an integrated microfocus sealed tube generator (powered at 45 kV and 0.9 mA) with Osmict Confocal Max-Fluxs optics, 3 pinholes collimation. A 20×20 cm^2 2D position-sensitive wire detector (1024×1024 pixels) was positioned 150 cm behind the examined samples, resulting in a q-range of 0.07-2.8 nm^−1. The wave vector defined as, q=(4π/λ)sin(2θ/2), where 2y is the scattering angle and λ is wavelength of Cu Kα radiation (1.542 Å). A total of 10^6 or more counts were collected in order to obtain a high signal to noise ratio. Samples were measured for 3600 s, and then background subtracted from data collected using a capillary containing the isotonic salt solution. The 2D SAXS patterns were azimuthally averaged and the background subtracted using standard methods. Data analysis was based on fitting the scattering curve to an appropriate model by a least-squares method using software provided by NIST (NIST SANS analysis version 7.0 on IGOR) ^21 The table below lists the models used to fit the SAXS curves. The Total SAXS cross-sectional dimensions correspond to length and width for molecule 2, and diameter for 3-5.

[3] = Transmission electron microscopy (cryoTEM / conventional TEM) of PA nanostructures; format: physicochemical
Procedure: The nanostructure of each PA molecule under physiologically relevant conditions was investigated using electron microscopy. Samples for vitreous ice cryo-transmission electron microscopy (cryoTEM) were prepared from a 0.1-0.5 wt % PA solution dissolved in 150 mM NaCl, 3 mM KCl, or in a 150 mM NaCl, 3 mM KCl, and 5 mM CaCl2 solution, both at a pH of 7.2-7.4. The solutions were then heated to 80° C. in a water bath for 1 hr, and then slowly cooled to room temperature over the course of 8 hr. 10 μL of each solution was pipetted onto a plasma cleaned holey carbon TEM grid (Electron Microscopy Sciences), blotted and plunged into liquid ethane using a FEI Vitrobot Mark IV. Samples were kept at −180° C. and imaged using a JEOL 1230 TEM operating at 100 kV.
Samples for conventional TEM microscopy were prepared from 0.1 wt % PA solution dissolved in ultrapure water and adjusted to a pH of 7.2-7.4 by adding NaOH. The solutions were then heated to 80° C. in a water bath for 1 hr, and then slowly cooled to room temperature over the course of 8 hr, unless noted otherwise. 2 μL of a 0.1 wt % PA solution was pipetted onto a Carbon Formvar grid (Electron Microscopy Sciences) and allowed to dry. The samples were then negatively stained by pipetting 2 uL of a 2 wt % Uranyl acetate solution and allowed to dry. Each sample was imaged using a JEOL 1230 TEM operating at 100 kV. The average diameter of nanofibers was obtained via measuring 40-100 different fibers from solutions and grids prepared throughout multiple days.
The assembly of each PA molecule under physiologically relevant conditions was examined using cryogenic electron microscopy (cryoTEM), as described in Example 4. PAs were dissolved in isotonic salt solutions resembling extracellular fluid (150 mM NaCl, 3 mM KCl, pH 7.4). […] In order to compare molecular simulation diameters with those observed from TEM, molecular simulation values for the other four PA molecules were scaled by the same amount, 87%.

[4] = Solubility in physiologically relevant monovalent salt solution; format: physicochemical; conditions: monovalent salt solution composed of 150 mM NaCl and 3 mM KCl
[5] = Dynamic light scattering; format: physicochemical
[6] = Circular dichroism (CD); format: physicochemical
Procedure: CD was done using a model J-715 Jasco Circular Dichroism Spectrometer. 1 wt % PA solutions were prepared in either a 150 mM NaCl, 3 mM KCl solution or a 150 mM NaCl, 3 mM KCl, and 5 mM CaCl2 solution, both at a pH of 7.2-7.4, as determined via pH paper. The solutions were then heated to 80° C. in a water bath for 1 hr, and then slowly cooled to room temperature over the course of 8 hr. The samples were measured through 0.01 mm quartz plates. Each trace represents the average of three scans. The mean residue ellipticity was corrected for purity of the lyophilized powder from peptide content analysis.

[7] = system: P19 embryonal carcinoma cells differentiated into neurons; assay: Neurite outgrowth of neurons cultured in peptide amphiphile gels; format: cell-based, murine; conditions: gels containing half the concentration (0.1 wt %) of the PA; compared to gels of PA 1
[8] = Transmission electron microscopy (cryoTEM / conventional TEM) of PA nanostructures; format: physicochemical; conditions: 1 wt % solution drop-cast and dried onto a TEM grid
[9] = (Core) Shell Cylinder SAXS model

- Core Diameter [2, 9]: 1.2 nm
- Shell Thickness [2, 9]: 2.0 ± 0.6 nm
- Total SAXS Cross-section dimensions [2, 9]: 6.4 ± 1.8 nm
- Core Diameter ([2]; (Core) Shell Sphere SAXS model): 1.46 nm
- Shell Thickness ([2]; (Core) Shell Sphere SAXS model): 1.4 ± 0.6 nm
- Total SAXS Cross-section dimensions ([2]; (Core) Shell Sphere SAXS model): 5.9±1.2 nm
- Total SAXS Cross-section dimensions ([2]; (Core) Shell Sphere SAXS model, listed as 5): 5.9±1.2 nm
- diameter of cylindrical structures ([3]; cryoTEM, isotonic salt solution with 5 mM CaCl2 added): 9.9±1.1 nm
- diameter of spherical micelles ([3]; cryoTEM, without CaCl2): 5.3±1.1 nm
- OBSERVED FIBER DIAMETER ([3]; from TEM): 108 ± 15 Å
- ASSEMBLED MORPHOLOGY ([3]; observed morphologies from TEM): Cylindrical fiber
- solubility [4]: soluble
- hydrodynamic radius of spherical micelles [5]: 8.6 nm
- peptide secondary structure from CD spectrum ([6]; 150 mM NaCl, 3 mM KCl with 5 mM CaCl2 added): presence of β-sheet structure
- peptide secondary structure from CD spectrum ([6]; 1 wt % in 150 mM NaCl, 3 mM KCl): random coil peptide structure
- average diameter of cylindrical nanofibers [8]: 10.8±1.5 nm
Compound: CCCCCCCCCCCCCCCC(=O)N[C@H](C(=O)N[C@H](C(=O)N[C@@H](C)C(=O)N[C@@H](C)C(=O)N[C@@H](CCC(=O)O)C(=O)N[C@@H](CCC(=O)O)C(=O)N[C@@H](CCC(=O)O)C(=O)N[C@@H](CCC(=O)O)C(=O)NCC(=O)N[C@H](C(=O)N[C@@H](CCCCN)C(=O)N[C@H](C(=O)N[C@@H](C)C(=O)N[C@H](C(=O)O)C(C)C)C(C)C)[C@@H](C)CC)C(C)C)C(C)C [PA 5, CH3(CH2)14C(O)-VVAAEEEEGIKVAV-OH] (Palmitoyl-VVAAEEEEGIKVAV-OH)
- promotion of neurite outgrowth (in words) [1]: promoted neurite outgrowth
- promotion of neurite outgrowth (in words) ([1]; listed as SEQ ID NO. 7): promote neurite outgrowth
- increase in neurite outgrowth ([1]; gels of 0.8 wt % PA 1 mixed with 0.2 wt % of the PA, gelled with 25 mM CaCl2, 2 days culture): 88±13%
- increase in neurite length [7]: 57±14%

From US8748569B2, “Peptide amphiphiles and methods to electrostatically control bioactivity of the ikvav peptide epitope” (Northwestern University, priority 2011, dated 2014)
